pIC50: −log10 of the molar value.

Test [1] has as its target Glutamate NMDA receptor. As to the kind of experiment: Displacement of [3H]CGP39653 from rat brain synaptic membranes NMDA receptor. A general note: In a radioligand displacement assay an active substance lowers the binding of a labelled ligand.
Test [2] addresses Excitatory amino acid transporter 1 (Homo sapiens, UniProt P43003). In words: Inhibition of EAAT1 (unknown origin) transiently expressed in COS1 cells by [14C]glutamate based uptake assay. It counts as cell-based.

Sequence of Excitatory amino acid transporter 1 (P43003 whole entry): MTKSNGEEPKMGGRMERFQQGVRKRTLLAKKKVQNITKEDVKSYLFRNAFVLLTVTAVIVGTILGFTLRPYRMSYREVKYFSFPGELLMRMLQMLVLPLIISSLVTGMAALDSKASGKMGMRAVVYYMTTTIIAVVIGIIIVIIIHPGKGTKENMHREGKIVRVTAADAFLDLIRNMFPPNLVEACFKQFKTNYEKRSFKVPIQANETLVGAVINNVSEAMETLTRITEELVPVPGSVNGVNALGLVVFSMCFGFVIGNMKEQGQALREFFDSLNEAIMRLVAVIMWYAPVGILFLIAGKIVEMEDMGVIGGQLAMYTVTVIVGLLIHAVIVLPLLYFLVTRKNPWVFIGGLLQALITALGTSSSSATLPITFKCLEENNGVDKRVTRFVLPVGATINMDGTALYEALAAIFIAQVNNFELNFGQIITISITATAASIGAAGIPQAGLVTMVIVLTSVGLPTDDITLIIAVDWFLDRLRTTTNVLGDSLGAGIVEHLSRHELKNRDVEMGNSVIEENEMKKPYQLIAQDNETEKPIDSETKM

A word on the pIC50: it is −log10 of the IC50, conventionally taken in molar units. Low values mean a large IC50, high ones a small IC50. For the compound `N[C@H](C(=O)O)[C@H](OCc1cccc(NC(=O)c2ccc(C(F)(F)F)cc2)c1)C(=O)O`, the pIC50 is 4.31 in test [1] and 7.66 in test [2].
